# Assay results: patent US9938222B2 (BRISTOL-MYERS SQUIBB COMPANY, priority 2014, dated 2018)
# Molecular target: human GPR120 (Homo sapiens (Human), UniProt Q5NUL3)
# Assay: GPR120 pERK AlphaScreen SureFire Assay (human GPR120 pERK assay)
# Format: cell-based
# Details: CHO cells stably transfected with short form of human GPR120
# Text: GPR120 activity was monitored by measuring phosphorylation of ERK (pERK), since G protein receptors are known to activate the ERK signaling cascade either directly and/or through recruitment of arrestin that serves as a scaffold for downstream signaling events.
# GPR120 pERK AlphaScreen SureFire Assay
# The human and mouse GPR120-mediated intracellular phosphorylated ERK assays were established using CHOA12 cells stably transfected with the short form of human or mouse GPR120 receptor. Cells were cultured in growth medium consisting of F-12 media (Invitrogen Cat. #11765) with 5% Charcoal/Dextran FBS (Invitrogen Cat. #12676-029), 500 μg/mL GENETICIN® (Life Technologies Cat. #10131-027) and 250 μg/mL Zeocin (Invitrogen Cat. #R250-01). Cells were cryo-preserved at a concentration of 2×10^7 cells/mL, in 90% Charcoal/Dextran FBS and 10% DMSO, and frozen in liquid nitrogen at a low passage number.
# For the pERK assay, 2×10^7 cells/mL cryopreserved human and mouse cells were thawed rapidly in a 37° C. water bath and added to a T-225 flask containing 50 mL growth medium. The flasks were placed in a tissue culture incubator overnight (37° C., 5% CO2). The next day, cells were harvested with trypsin (Gibco Cat. #25300-054), resuspended in serum-containing growth medium and counted using a Cellometer and volume adjusted to a concentration of 0.6×10^6 cells/mL. Cells were plated into 384-well clear bottom tissue culture plates (BD Cat. #353962) at 50 μL/well, for a density of 30,000 cells/well using a MULTIDROP® and incubated for 16-18 hours (overnight) at 37° C. with 5% CO2. The next day, cells were serum starved in 30 μL of F-12 media without any serum or antibiotics for 2 hours at 37° C.
# Test compounds were 3-fold, 11-point serially diluted in DMSO in a REMP assay plate (Matrix Cat. #4307) by Tecan and 5 μL was transferred into an ECHO source plate (Labcyte Cat. #LC-0200). Cells were then stimulated with 50 nL of compound dilutions using ECHO liquid handler for 7 min at 37° C. Compounds ranged from final assay concentrations of 33.33 μM to 0.56 nM.
# The media was then dumped and cells lysed with 20 μL of 1× Lysis buffer from the AlphaScreen SureFire Phospho-ERK 1/2 Kit (Perkin Elmer Cat. #6760617M). The lysis buffer was diluted 5-fold with water before use. The plate was agitated on a shaker for 10 min after which 2 μL was transferred into a 384-well white proxiplate (Perkin Elmer Cat. #6008289). The SureFire assay reagent mix was prepared by mixing 60 parts Reaction Buffer, 10 parts Activation Buffer, 1 part Donor Beads, 1 part Acceptor Beads (Perkin Elmer Cat. #TGRES10K). 3.5 μL/well of this reagent mix was manually added to the proxiplate with a multichannel pipettor. Plates were spun down at 1000 rpm for 2 min, followed by light-protected incubation at room temperature for 2 hours. The plates were read on the Alpha-technology compatible Envision multilabel plate reader using AlphaScreen protocol according to manufacturer's specifications. The agonist effect of compounds was expressed as 100×(average sample-average blank)/(average total-average blank) where sample is the luminescence activity in the presence of test compound, blank is equal to the luminescence activity in the presence of DMSO control and the total is signal induced by 50 μM linolenic acid as reference compound. Activation data for the test compound over a range of concentrations was plotted as percentage activation of the test compound (100%=maximum response). After correcting for background, EC50 values were determined. The EC50 is defined as the concentration of test compound which produces 50% of the maximal response and was quantified using the 4 parameter logistic equation to fit the data.
# The human and mouse GPR120-mediated intracellular phosphorylated ERK assays were also established using CHO-K1 cells stably transfected with the short form of human or mouse GPR120 receptor. […]
# Chain of human GPR120 (Q5NUL3 whole entry): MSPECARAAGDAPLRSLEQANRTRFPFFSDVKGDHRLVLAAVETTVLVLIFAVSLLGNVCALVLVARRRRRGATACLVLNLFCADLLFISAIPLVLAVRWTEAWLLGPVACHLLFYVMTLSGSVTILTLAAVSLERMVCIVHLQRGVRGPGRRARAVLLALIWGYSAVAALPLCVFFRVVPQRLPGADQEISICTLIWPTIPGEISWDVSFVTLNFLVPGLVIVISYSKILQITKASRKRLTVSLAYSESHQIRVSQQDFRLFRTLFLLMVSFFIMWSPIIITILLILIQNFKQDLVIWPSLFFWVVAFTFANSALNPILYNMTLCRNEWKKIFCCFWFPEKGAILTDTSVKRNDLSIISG
EC50 [nM],EC50 (μM),Compound
1110,–,"COc1cc(OC(C)C)cc(-c2ccc(OC[C@@H]3C[C@H]3C(=O)O)cc2)c1 (racemic) [Example 117, Trans-2-(((3′-isopropoxy-5′-methoxy-[1,1′-biphenyl]-4-yl)oxy)methyl) cyclopropanecarboxylic acid]"
190,–,"O=C(O)[C@@H]1C[C@H]1COc1ccc(-c2cc(Oc3cccc(F)c3)cnc2Cl)cc1 (racemic) [Example 111, Trans-2-((4-(2-chloro-5-(3-fluorophenoxy)pyridin-3-yl)phenoxy)methyl) cyclopropanecarboxylic acid]"
310,–,"CC(C)Oc1ccc(F)c(-c2ccc(OC[C@@H]3C[C@H]3C(=O)O)c(F)c2)c1 (racemic) [Example 62, Trans-2-(((2′,3-difluoro-5′-isopropoxy-[1,1′-biphenyl]-4-yl)oxy)methyl) cyclopropanecarboxylic acid]"
200,–,"CC(C)Oc1ccc(F)c(-c2ccc(CC[C@@H]3C[C@@H]3C(=O)O)cc2)c1 (single isomer, unassigned) [Example 17]"
800,–,"COC(=O)c1cccc(-c2ccc(CC[C@@H]3C[C@H]3C(=O)O)cc2)c1 (racemic) [Example 130, Trans-2-(2-(3′-(methoxycarbonyl)-[1,1′-biphenyl]-4-yl)ethyl) cyclopropanecarboxylic acid]"
1760,–,"CC(C)Oc1ccc(F)c(-c2ccc(OC[C@@H]3C[C@H]3C(=O)O)c(C=O)c2)c1 (racemic) [Example 87, Trans-2-(((2′-fluoro-3-formyl-5′-isopropoxy-[1,1′-biphenyl]-4-yl)oxy)methyl) cyclopropanecarboxylic acid]"
1430,–,"COc1ccc(OC(F)(F)F)cc1-c1ccc(OC[C@@H]2C[C@H]2C(=O)O)cc1 (racemic) [Example 71, Trans-2-(((2′-methoxy-5′-(trifluoromethoxy)-[1,1′-biphenyl]-4-yl)oxy)methyl)cyclopropanecarboxylic acid]"
220,–,"CC(C)Oc1ccc(F)c(-c2ccc(OC[C@@H]3C[C@H]3C(=O)O)c(Cl)c2)c1 (racemic) [Example 45, Trans-2-(((3-chloro-2′-fluoro-5′-isopropoxy-[1,1′-biphenyl]-4-yl)oxy)methyl)cyclopropanecarboxylic acid]"
10800,–,"CC(C)Sc1ncc(C(F)(F)F)cc1-c1ccc(OC[C@@H]2C[C@H]2C(=O)O)cc1 (racemic) [Example 69, Trans-2-((4-(2-(isopropylthio)-5-(trifluoromethyl)pyridin-3-yl)phenoxy)methyl)cyclopropanecarboxylic acid]"
930,–,"CC(C)Oc1ccc(F)c(-c2ccc(OC[C@@H]3C[C@H]3C(=O)O)c(CC=O)c2)c1 (racemic) [Example 90, Trans-2-(((2′-fluoro-5′-isopropoxy-3-(2-oxoethyl)-[1,1′-biphenyl]-4-yl)oxy)methyl) cyclopropanecarboxylic acid]"
70,–,O=C(O)[C@@H]1CC1COc1ccc(-c2cc(Oc3cccc(F)c3)ccc2F)cc1F (stereo partly shown) [Example 97]
1350,–,"O=C(O)[C@@H]1C[C@H]1COc1ccc(-c2cc(C(F)(F)F)cnc2Cl)cc1 (racemic) [Example 122, Trans-2-((4-(2-chloro-5-(trifluoromethyl)pyridin-3-yl)phenoxy)methyl)cyclopropanecarboxylic acid]"
2340,–,"COc1cc(Cl)cc(-c2ccc(CC[C@@H]3C[C@H]3C(=O)O)cc2)c1 (racemic) [Example 77, Trans-2-(2-(3′-chloro-5′-methoxy-[1,1′-biphenyl]-4-yl)ethyl) cyclopropanecarboxylic acid]"
1580,–,"O=C(O)[C@@H]1C[C@H]1CCc1ccc(-c2cccc(-n3cccc3)c2)cc1 (racemic) [Example 129, Trans-2-(2-(3′-(1H-pyrrol-1-yl)-[1,1′-biphenyl]-4-yl)ethyl) cyclopropanecarboxylic acid]"
610,–,"COc1cc(OC(F)(F)F)cc(-c2ccc(OC[C@@H]3C[C@H]3C(=O)O)cc2)c1 (racemic) [Example 74, Trans-2-(((3′-methoxy-5′-(trifluoromethoxy)-[1,1′-biphenyl]-4-yl)oxy)methyl)cyclopropanecarboxylic acid]"
1720,–,"CC1(C)Cc2cc(Cl)cc(-c3ccc(CC[C@@H]4C[C@H]4C(=O)O)cc3)c2O1 (single isomer, unassigned) [Example 26]"
2860,–,"CC(C)Oc1ccc(F)c(-c2ccc(OC[C@@H]3C[C@@H]3C(=O)O)cc2)c1 (single isomer, unassigned) [Example 8]"
470,–,"CC(C)Oc1ccc(F)c(-c2ccc(OC[C@@H]3C[C@H]3C(=O)O)cc2)c1 (single isomer, unassigned) [Example 3]"
280,–,"O=C(O)[C@@H]1C[C@H]1COc1ccc(-c2cc(Oc3cc(F)cc(F)c3)ccc2F)cc1 (relative stereo) [Example 43, Trans-2-(((5′-(3,5-difluorophenoxy)-2′-fluoro-[1,1′-biphenyl]-4-yl)oxy)methyl)cyclopropanecarboxylic acid]"
–,Not active,"CC1(C)Cc2c(F)cc(-c3ccc(OC[C@@H]4C[C@H]4C(=O)O)cc3)cc2O1 (racemic) [Example 21, Trans-2-((4-(4-fluoro-2,2-dimethyl-2,3-dihydrobenzofuran-6-yl)phenoxy)methyl) cyclopropanecarboxylic acid]"
620,–,"O=C(O)C1CC1COc1ccc(-c2cc(OC(F)(F)F)ccc2F)cc1 (single isomer, unassigned) [Example 52, Trans-2-(((2′-fluoro-5′-(trifluoromethoxy)-[1,1′-biphenyl]-4-yl)oxy)methyl)cyclopropanecarboxylic acid]"
940,–,"CC(C)Oc1ccc(F)c(-c2ccc(OC[C@@H]3C[C@H]3C(=O)O)cc2)c1F (relative stereo) [Example 127, Trans-2-(((2′,6′-difluoro-3′-isopropoxy-[1,1′-biphenyl]-4-yl)oxy)methyl) cyclopropanecarboxylic acid]"
980,–,"O=C(O)[C@@H]1C[C@H]1COCc1ccc(-c2cc(Oc3ccccc3)ccc2F)cc1 (racemic) [Example 25, Trans-2-(((2′-fluoro-5′-phenoxy-[1,1′-biphenyl]-4-yl)methoxy)methyl) cyclopropanecarboxylic acid]"
1670,–,"CC(C)Oc1cc(-c2ccc(OC[C@@H]3C[C@H]3C(=O)O)cc2)c(F)c(C(F)(F)F)c1 (racemic) [Example 49, Trans-2-(((2′-fluoro-5′-isopropoxy-3′-(trifluoromethyl)-[1,1′-biphenyl]-4-yl)oxy)methyl)cyclopropanecarboxylic acid]"
1440,–,"COc1ccc(OC(F)(F)F)cc1-c1ccc(CC[C@@H]2C[C@H]2C(=O)O)cc1 (racemic) [Example 79, Trans-2-(2-(2′-methoxy-5′-(trifluoromethoxy)-[1,1′-biphenyl]-4-yl)ethyl)cyclopropanecarboxylic acid]"
260,–,"O=C(O)C1CC1COc1ccc(-c2cc(OC3CCCC3)ccc2F)cc1 (racemic) [Example 50, Trans-2-(((5′-cyclopentyloxy)-2′-fluoro-[1,1′-biphenyl]-4-yl)oxy)methyl) cyclopropanecarboxylic acid]"
180,–,"O=C(O)[C@@H]1C[C@H]1COc1ccc(-c2cc(Oc3cccc(F)c3)ccc2F)cc1F (relative stereo) [Example 96, Trans-2-(((2′,3-difluoro-5′-(3-fluorophenoxy)-[1,1′-biphenyl]-4-yl)oxy)methyl) cyclopropanecarboxylic acid]"

Compound,EC50 [nM],EC50 (μM)
"CC[C@@H](C)Oc1ccc(F)c(-c2ccc(OCC3CC3C(=O)O)cc2)c1 (stereo partly drawn) [Example 93, Trans-2-(((5′-((R)-sec-butoxy)-2′-fluoro-[1,1′-biphenyl]-4-yl)oxy)methyl) cyclopropanecarboxylic acid]",300,–
